According to US10899815B2, “Compositions and methods of using islet neogenesis peptides and analogs thereof” (SHENZHEN HIGHTIDE BIOPHARMACEUTICAL, LTD., priority 2013, dated 2021):

Tests used:
Pharmacokinetics in rat = type: in vivo, Sprague-Dawley (SD) rats; settings: mouse and rat, 25 mg/kg
Method: After 7 days acclimation, male Sprague-Dawley (SD) rats weighing 210-250 g, or male C57BL/6 mice, weighing 19-24 g, in good health were used in the study. Peptide 1, Peptide 12 and Peptide 16 were dissolved in sterile normal saline and then they were injected via subcutaneous (sc) bolus or intravenous (iv) bolus at the dose level of 25 mg/kg. Three animals in each group were used for blood collection at the time point of 5 min, 15 min, 30 min, 1 h, 2 h, 4 h, 6 h, 8 h and 24 h post-dose. Blood samples (approximately 400 μL) were collected and placed into tubes containing EDTA-K2 and centrifuged at 8000 rpm for 6 minutes at 4° C. to separate plasma front the samples. The resulting plasma was stored frozen at −80° C. until being analyzed. Plasma concentrations of peptides were determined using tandem mass spectrometry (LC-MS/MS) analysis. A non-compartmental module of WinNonlin® Professional 5.2 (Pharsight; St. Louis, Mo.), was used to calculate PK parameters. The abbreviation AUC(0-t) represents area under the curve front the time of dosing to the time of the last observation, the AUC(0-∞) represents area under the curve from the time of dosing to infinity, and the Cmax represents maximum concentration detected.

[1] = Peptide stability in human plasma; type: in vitro ADME; settings: 100 μg/mL, 37° C., 0-120 min, FIG. 4
Method: (§1) The stability of peptides was also tested in mouse and human plasma. Briefly, a certain amount of peptides and eucatropine powder (positive control) was accurately weighed. Test compounds were dissolved in 50% methanol-water solution and diluted to 20 mg/mL, and eucatropine was dissolved in dimethylsulfoxide (DMSO) and diluted to 10 mM, as a stock solution. Eucatropine stock solution was diluted to 0.2 mM with DMSO as a working solution. A stop reagent was prepared containing 200 ng/mL midazolam and tolbutamide in acetonitrile. A volume of 300 μL of stop solution was added to each well of a 96-well deep-well plate placed on ice beforehand.
(§2) For the stability studies, peptides and eucatropine were spiked into plasma respectively, mixed well, and then 100 μL of each mixture solution was transferred into the pre-cooled stop reagent as 0 time point sample. The remaining mixtures were incubated in a 37° C. water bath with shaking at 100 rpm (n=2). The final incubation concentration was 1 μM for eucatropine and 100 μg/mL for all test compounds.
At desired time points, 100 μl, of incubation mixture was transferred to the stop reagent to precipitate proteins. […] The samples were analyzed by LC-MS/MS.
Slope was calculated by plotting the natural logarithm of the percentage or remaining amount of test compounds and time, and T12 was calculated in accordance with the following formula. […]

pancreatic islets = experiment: Glucose-stimulated insulin secretion (GSIS) of isolated islets; type: cell-based, Sprague-Dawley (SD) rats; settings: rat islets, 12.0 mM glucose, 10 μg/mL peptide (GLP-1 100 nM), 60 min, FIG. 8
Method: The pancreases were procured from male adult Sprague-Dawley (SD) rats. After 7 days acclimation, the animals were sacrificed by cervical dislocation and the entire pancreas was removed and digested with collagenase to isolate islets. After digestion, islets were maintained at 37° C. in RPMI 1640 (Carlsbad, Calif., USA) pH 7.4, containing 10% (v/v) fetal calf serum, 1% penicillin/streptomycin, and 10 mM glucose in a humid atmosphere (5% CO2/95% O2), without the addition of any compound (control), or with the addition of 100 nM glucagon like peptide-1 (GLP-1); or 10 μg/mL Peptide 1, Peptide 12, or Peptide 16, as summarized in Table 4 below. Cultured islets were rinsed in Krebs-Ringer bicarbonate buffer (KRB), pH 7.4, previously gassed with a mixture CO2/O2 (5/95%), and pre-incubated in 1.0 ml KRB containing 0.5% (w/v) BSA and 1.5 mM glucose at 37° C. for 45 min. After this period, groups of 5 islets were incubated in 0.6 ml KRB with the addition of 1.5 or 12.0 mM glucose, with or without the addition of peptides for 60 min. At the end of the incubation period, aliquots of the medium were collected for insulin quantitation.

[2] = Peptide stability in mouse plasma; type: in vitro ADME; settings: 100 μg/mL, 37° C., LC-MS/MS, FIG. 3 and FIG. 5
Method: as §1, §2
At desired time points, 100 μl, of incubation mixture was transferred to the stop reagent to precipitate proteins. Samples were vortexed and centrifuged at RCF 5000-g for 10 minutes, and supernatant was transferred to a test plate. The samples were analyzed by LC-MS/MS.
Slope was calculated by plotting the natural logarithm of the percentage or remaining amount of test compounds and time, and T12 was calculated in accordance with the following formula.
For stability in mouse plasma, the incubation time was 0, 5, 15, 30 and 60 min for Peptide 1 and eucatropine, 0, 15, 30, 60, 120, 240 and 480 min for Peptide 12, Peptide 16 and Peptide 29.
In another stability study in mouse plasma, the incubation time was 0, 30, 60 and 120 min for Peptide 2 and eucatropine; 0, 30, 60, 120, 240 and 960 min for Peptide 52 and Peptide 54.

Substance: Ac-IGLHDPSHGTLPNGS-OH [Peptide 16, Ac-IGLHDPSHGTLPNGS-OH]
- PK properties (AUC and Cmax) compared to INGAP-PP (Pharmacokinetics in rat): marked improved PK properties
- stability in human plasma [1]: good stability in human plasma and were significantly more stable than INGAP-PP
- glucose-stimulated insulin secretion versus islets without peptides (pancreatic islets): released significantly more insulin
- stability in mouse plasma [2]: good stability in mouse plasma and were more stable than INGAP-PP
